Values of other authors as cited in patent US5629294A, “Compositions and methods for preventing adhesion formation” (University of Southern California, priority 1994, dated 1997).

Columns and labels:
[1] = test system: platelet aggregation in response to ADP and collagen
[2] = test system: platelet accumulation associated with the administration of a collagen substrate and ADP; details: baboon model, RGDV given at 0.35, 0.68 or 1.31 μmol/min

Substance: RGDV
- concentration necessary to effectively abolish platelet aggregation [1]: 100 µM
- platelet accumulation [2]: dose-dependent reduction in platelet accumulation
